# Tested on: 252836-082-R-J2-PDC tumor spheroids, viability
# Assay: Anticancer human tumor 252836-082-R-J2-PDC patient-derived head and neck squamous cell carcinoma cell line growth inhibition [PI3K]
# Conditions: spheroids with HUVEC and MSC; for viability, T/C: stronger effect = lower value
# Summary of the method: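 Combination activity was assessed by viability in multicellular tumor spheroids carrying HUVEC and MSC components. Agents were tested with PI3K inhibitors from a Cmax-based top dose (or 10 microM) downward in half-log increments.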
# [1] = curve of first compound, second compound 0.00316 µM
# [2] = curve of first compound, second compound 0.01 µM
# [3] = curve of first compound, second compound 0.0316 µM
# [4] = curve of first compound, second compound 0.1 µM
# [5] = curve of first compound, second compound 0.316 µM
# [6] = curve of first compound, second compound 1 µM
# [7] = second compound 0.00316 µM, first compound 0.0316 µM
# [8] = second compound 0.00316 µM, first compound 0.1 µM
# [9] = second compound 0.01 µM, first compound 0.0316 µM
# [10] = second compound 0.01 µM, first compound 0.1 µM
# [11] = second compound 0.0316 µM, first compound 0.0316 µM
# [12] = second compound 0.0316 µM, first compound 0.1 µM
# [13] = second compound 0.1 µM, first compound 0.0316 µM
# [14] = second compound 0.1 µM, first compound 0.1 µM
# [15] = second compound 0.316 µM, first compound 0.0316 µM
# [16] = second compound 0.316 µM, first compound 0.1 µM
# [17] = second compound 1 µM, first compound 0.0316 µM
# [18] = second compound 1 µM, first compound 0.1 µM
# [19] = second compound 0.00316 µM, first compound 0.316 µM
# [20] = second compound 0.00316 µM, first compound 1 µM
# [21] = second compound 0.00316 µM, first compound 3.16 µM
# [22] = second compound 0.00316 µM, first compound 10 µM
# [23] = second compound 0.01 µM, first compound 0.316 µM
# [24] = second compound 0.01 µM, first compound 1 µM
# [25] = second compound 0.01 µM, first compound 3.16 µM
# [26] = second compound 0.01 µM, first compound 10 µM
# [27] = second compound 0.0316 µM, first compound 0.316 µM
# [28] = second compound 0.0316 µM, first compound 1 µM
# [29] = second compound 0.0316 µM, first compound 3.16 µM
# [30] = second compound 0.0316 µM, first compound 10 µM
# [31] = second compound 0.1 µM, first compound 0.316 µM
# [32] = second compound 0.1 µM, first compound 1 µM
# [33] = second compound 0.1 µM, first compound 3.16 µM
# [34] = second compound 0.1 µM, first compound 10 µM
# [35] = second compound 0.316 µM, first compound 0.316 µM
# [36] = second compound 0.316 µM, first compound 1 µM
# [37] = second compound 0.316 µM, first compound 3.16 µM
# [38] = second compound 0.316 µM, first compound 10 µM
# [39] = second compound 1 µM, first compound 0.316 µM
# [40] = second compound 1 µM, first compound 1 µM
# [41] = second compound 1 µM, first compound 3.16 µM
# [42] = second compound 1 µM, first compound 10 µM
# 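Note: spheroids exposed to agents for seven days before readout.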
# 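Throughout, for viability, T/C: percent of vehicle DMSO control viability so 100% = untreated growth.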
structure (smiles),measurement,setting,value
CC(C)n1nc(-c2ccc3oc(N)nc3c2)c2c(N)ncnc21 + CC(Nc1ccc2c(c1)OCCn1cc(N3C(=O)OCC3C(F)F)nc1-2)C(N)=O,IC50,[1],36.9 nM
same,IC50,[2],26.9 nM
same,IC50,[3],22.4 nM
same,IC50,[4],9.42 nM
same,IC50,[5],4.07 nM
same,IC50,[6],< 0.316 nM
same,"viability, T/C","second compound 0.00316 µM, first compound 0.000316 µM",108%
same,"viability, T/C","second compound 0.00316 µM, first compound 0.001 µM",81.8%
same,"viability, T/C","second compound 0.00316 µM, first compound 0.00316 µM",79%
same,"viability, T/C","second compound 0.00316 µM, first compound 0.01 µM",86%
same,"viability, T/C",[7],51.1%
same,"viability, T/C",[8],21.9%
same,"viability, T/C","second compound 0.01 µM, first compound 0.000316 µM",94%
same,"viability, T/C","second compound 0.01 µM, first compound 0.001 µM",81.1%
same,"viability, T/C","second compound 0.01 µM, first compound 0.00316 µM",73.6%
same,"viability, T/C","second compound 0.01 µM, first compound 0.01 µM",69.4%
same,"viability, T/C",[9],47.7%
same,"viability, T/C",[10],21.3%
same,"viability, T/C","second compound 0.0316 µM, first compound 0.000316 µM",86.2%
same,"viability, T/C","second compound 0.0316 µM, first compound 0.001 µM",77.4%
same,"viability, T/C","second compound 0.0316 µM, first compound 0.00316 µM",80.7%
same,"viability, T/C","second compound 0.0316 µM, first compound 0.01 µM",61.7%
same,"viability, T/C",[11],44.8%
same,"viability, T/C",[12],19.4%
same,"viability, T/C","second compound 0.1 µM, first compound 0.000316 µM",78.2%
same,"viability, T/C","second compound 0.1 µM, first compound 0.001 µM",65.1%
same,"viability, T/C","second compound 0.1 µM, first compound 0.00316 µM",59.5%
same,"viability, T/C","second compound 0.1 µM, first compound 0.01 µM",52.5%
same,"viability, T/C",[13],35.2%
same,"viability, T/C",[14],15.9%
same,"viability, T/C","second compound 0.316 µM, first compound 0.000316 µM",55.1%
same,"viability, T/C","second compound 0.316 µM, first compound 0.001 µM",52.3%
same,"viability, T/C","second compound 0.316 µM, first compound 0.00316 µM",56.6%
same,"viability, T/C","second compound 0.316 µM, first compound 0.01 µM",40%
same,"viability, T/C",[15],28.9%
same,"viability, T/C",[16],16.6%
same,"viability, T/C","second compound 1 µM, first compound 0.000316 µM",46.4%
same,"viability, T/C","second compound 1 µM, first compound 0.001 µM",52.5%
same,"viability, T/C","second compound 1 µM, first compound 0.00316 µM",42.4%
same,"viability, T/C","second compound 1 µM, first compound 0.01 µM",37.8%
same,"viability, T/C",[17],26.6%
same,"viability, T/C",[18],11.9%
Cc1nc(NC(=O)N2CCCC2C(N)=O)sc1-c1ccnc(C(C)(C)C(F)(F)F)c1 (stereo not drawn),"viability, T/C",compound 0.0316 µM,86.2% [middle of 8 runs]
same,"viability, T/C",compound 0.1 µM,88.9% [middle of 8 runs]
same,"viability, T/C",compound 0.316 µM,81% [middle of 8 runs]
same,"viability, T/C",compound 1 µM,62.9% [middle of 8 runs]
same,"viability, T/C",compound 3.16 µM,48% [middle of 8 runs]
same,"viability, T/C",compound 10 µM,35% [middle of 8 runs]
same,IC50,"compound alone, run of 06/12/2023",2.64 µM [middle of 8 runs]
C#Cc1c(F)ccc2cc(O)cc(-c3ncc4c(N5CC6CCC(C5)N6)nc(OCC56CCCN5CC(F)C6)nc4c3F)c12 (stereo not drawn) + CC(Nc1ccc2c(c1)OCCn1cc(N3C(=O)OCC3C(F)F)nc1-2)C(N)=O,IC50,[1],> 10000 nM
same,IC50,[2],> 10000 nM
same,IC50,[3],> 10000 nM
same,IC50,[4],3730 nM
same,IC50,[5],81.7 nM
same,IC50,[6],< 31.6 nM
same,"viability, T/C",[7],91.8%
same,"viability, T/C",[8],72.8%
same,"viability, T/C",[19],76.1%
same,"viability, T/C",[20],82.2%
same,"viability, T/C",[21],72%
same,"viability, T/C",[22],50.7%
same,"viability, T/C",[9],83.7%
same,"viability, T/C",[10],73.6%
same,"viability, T/C",[23],78.6%
same,"viability, T/C",[24],71%
same,"viability, T/C",[25],75.6%
same,"viability, T/C",[26],59.5%
same,"viability, T/C",[11],74.6%
same,"viability, T/C",[12],67.4%
same,"viability, T/C",[27],68.9%
same,"viability, T/C",[28],58.8%
same,"viability, T/C",[29],56%
same,"viability, T/C",[30],56.1%
same,"viability, T/C",[13],62.9%
same,"viability, T/C",[14],56.3%
same,"viability, T/C",[31],61.9%
same,"viability, T/C",[32],61.1%
same,"viability, T/C",[33],49.3%
same,"viability, T/C",[34],38.9%
same,"viability, T/C",[15],56%
same,"viability, T/C",[16],45.9%
same,"viability, T/C",[35],46.7%
same,"viability, T/C",[36],38%
same,"viability, T/C",[37],39.4%
same,"viability, T/C",[38],32.6%
same,"viability, T/C",[17],46.1%
same,"viability, T/C",[18],38.7%
same,"viability, T/C",[39],45.1%
same,"viability, T/C",[40],36.6%
same,"viability, T/C",[41],33.2%
same,"viability, T/C",[42],26.6%
C=CC(=O)N1CCN(c2nc(=O)n(-c3c(C)ccnc3C(C)C)c3nc(-c4c(O)cccc4F)c(F)cc23)C(C)C1 (stereo not drawn) + COc1c(OCCCN2CCOCC2)ccc2c3n(c(=NC(=O)c4cnc(N)nc4)nc12)CCN3,IC50,[1],> 10000 nM
same,IC50,[2],> 10000 nM
same,IC50,[3],> 10000 nM
same,IC50,[4],< 31.6 nM
same,IC50,[5],< 31.6 nM
same,IC50,[6],< 31.6 nM
same,"viability, T/C",[7],92.7%
same,"viability, T/C",[8],94.5%
same,"viability, T/C",[19],96.1%
same,"viability, T/C",[20],99.7%
same,"viability, T/C",[21],118%
same,"viability, T/C",[22],94.9%
same,"viability, T/C",[9],74.4%
same,"viability, T/C",[10],73.8%
same,"viability, T/C",[23],89.2%
same,"viability, T/C",[24],88.7%
same,"viability, T/C",[25],98.2%
same,"viability, T/C",[26],82.2%
same,"viability, T/C",[11],63%
same,"viability, T/C",[12],56.9%
same,"viability, T/C",[27],55.3%
same,"viability, T/C",[28],75.8%
same,"viability, T/C",[29],77.4%
same,"viability, T/C",[30],73.3%
same,"viability, T/C",[13],36%
same,"viability, T/C",[14],34.6%
same,"viability, T/C",[31],34.9%
same,"viability, T/C",[32],45.1%
same,"viability, T/C",[33],45.1%
same,"viability, T/C",[34],42.8%
same,"viability, T/C",[15],19.2%
same,"viability, T/C",[16],17.3%
same,"viability, T/C",[35],22.8%
same,"viability, T/C",[36],17.3%
same,"viability, T/C",[37],20.8%
same,"viability, T/C",[38],15.9%
same,"viability, T/C",[17],5.1%
same,"viability, T/C",[18],5.86%
same,"viability, T/C",[39],5.59%
same,"viability, T/C",[40],5.93%
same,"viability, T/C",[41],7.35%
same,"viability, T/C",[42],3.61%
